Reference: US4398937A, “Selective algaecides for control of cyanochloronta” (The University of Southern Mississippi, priority 1981, dated 1983)
Read-outs that look alike come from different tables or passages of the source.

Legend:
Format in all cases: cell-based
Chlorella vulgaris [1] = assay: Test tube culture inhibition of Chlorella vulgaris, algal units/ml
Procedure: (§1) The algae used in this particular study were Chlamydomonas sp., Chlorella vulgaris, Anabaena sp., and Anabaena flos-aquae. Cultures of these algae were obtained, subcultured, and aqueous stocks of algae in 400 ml BBM were prepared and were used in log phase growth to innoculate test cultures.
(§2) The fatty acids which were tested as algal inhibitors were 9, 10-dihydroxystearic acid, linoleic acid, dodecanoic acid, and ricinoleic acid.
(§3) The test procedure involved placing 15 ml of BBM into 25 ml test tubes and innoculating them with 0.2 ml of algal stock solution. Twenty test tubes were innoculated with each algae. Four of these cultures were used with each concentration of each of the fatty acids. Four tubes from each set served as controls. Four concentrations of the fatty acids were used for each alga. The concentrations studied were 0.5 PPM, 1.0 PPM, 5.0 PPM, and 10.0 PPM.
(§4) Algal cultures were incubated under constant light of about 200 foot-candles and at a temperature of 68° F. Bold's Basal Medium (BBM), a modification of Bristol's solution was the medium in which all the cultures were grown. Bold's Basal Medium was prepared as follows:
(§5) Concentrations of fatty acids and the amount of stock solution used to prepare them were as follows:
(§6) Each test tube contained 15 ml sterile BBM. To this was added an aliquot of 0.2 of algal stock solution. Then the appropriate aliquots of warm acid stock solution were added to the appropriate number of culture tubes. These cultures were then incubated 5 days and at that point were counted. The same cultures were also counted after a 12 day growth period.
(§7) Stock solutions of the fatty acids to be tested as algal inhibitors were made from a stock solution of 5% sodium bicarbonate in glass-distilled water. The 5% sodium bicarbonate stock solution was made by dissolving 150 grams of sodium bicarbonate in 3000 ml of glass-distilled water. To insure complete dissolution, the solution was heated and stirred on a magnetic stirrer hot plate. The warm solution was used in preparing the fatty acid stock solutions.
(§8) Quanitative phytoplankton values were determined using the random field method. Filaments, colonies, and aggregations of cells were recorded as algal units. Each unit consisted of approximately 6 cells. Unicellular algae were counted as separate units. Algal counts were made from each of three duplicate cultures. One ml of the algal sample was placed in a Sedgwick-Rafter counting chamber, which is 50 mm long by 20 mm, wide by 1 mm deep. A Wild Heerbrugg, compound microscope with a Whipple grid eyepiece was used to determine quantitative algae values.
(§9) One ml of the algal solution was placed in the counting chamber, and two drops of methyl cellulose were added to minimize the movement of Chlamydomonas sp. Ten random fields were counted and all organisms within the Whipple grid field were enumerated.
(§10) The following formula used to calculate the numbers per milliliter from the field counts: [formula] where: C=number of organisms counted,
(§11) The area of the Whipple grid used was 0.46 mm^2, and the depth of a field was 1 mm. Results of the counts were reported as algal units/ml.

Chlamydomonas sp. = assay: Test tube culture inhibition of Chlamydomonas sp., algal units/ml
Procedure: as §1, §2, §3, §4, §5, §6, §7, §8, §9, §10, §11

Anabaena flos-aquae [2] = assay: Test tube culture inhibition of Anabaena flos-aquae, algal units/ml
Procedure: as §1, §2, §3, §4, §5, §6, §7, §8, §9, §10, §11

Chlorella vulgaris [3] = assay: 300 ml batch culture of Chlorella vulgaris, visual; conditions: batch cultures, all concentrations
Procedure: (§12) As a means of visually confirming some of the results batch cultures of 300 ml. of Anabaena flos-aquae and Chlorella vulgaris were grown.

Anabaena flos-aquae [4] = assay: 300 ml batch culture of Anabaena flos-aquae, visual
Procedure: as §12

Anabaena sp. = assay: Test tube culture inhibition of Anabaena sp., algal units/ml
Procedure: as §1, §2, §3, §4, §5, §6, §7, §8, §9, §10, §11

[5] = 5 and 12 days, all concentrations

SMILES: CCCCCC[C@@H](O)C/C=C\CCCCCCCC(=O)O [Ricinoleic Acid, ricinoleic acid]
- Algal units/ml (Chlorella vulgaris [1]; 5 days, 0.5 PPM): 20217 units/ml
- Algal units/ml (Chlorella vulgaris [1]; 5 days, 1.0 PPM): 21739 units/ml
- Algal units/ml (Chlorella vulgaris [1]; 5 days, 5.0 PPM): 22391 units/ml
- Algal units/ml (Chlorella vulgaris [1]; 5 days, 10.0 PPM): 20870 units/ml
- Algal units/ml (Chlorella vulgaris [1]; 12 days, 0.5 PPM): 217391 units/ml
- Algal units/ml (Chlorella vulgaris [1]; 12 days, 1.0 PPM): 326087 units/ml
- Algal units/ml (Chlorella vulgaris [1]; 12 days, 5.0 PPM): 326087 units/ml
- Algal units/ml (Chlorella vulgaris [1]; 12 days, 10.0 PPM): 326087 units/ml
- activation at 0.5 ppm (Chlorella vulgaris [1]; Chlorella vulgaris, 120 h, 5 days, 0.5 PPM, read-out: more algal units/ml than in the control): 86%
- activation at 10 ppm (Chlorella vulgaris [1]; Chlorella vulgaris, 288 h, 12 days, 10 PPM, read-out: more algal units/ml than in the control): 50%
- effect on algal growth (Chlorella vulgaris [1]; all concentrations at 5 days, 5 and 10 PPM at 12 days): stimulatory effect
- effect on algal growth (Chlamydomonas sp.; [5]): stimulatory effect
- concentration of maximum stimulatory effect (Chlamydomonas sp.; 5 days): 5.0 PPM
- Algal units/ml (Chlamydomonas sp.; 5 days, 0.5 PPM): 18696 units/ml
- Algal units/ml (Chlamydomonas sp.; 5 days, 1.0 PPM): 29130 units/ml
- Algal units/ml (Chlamydomonas sp.; 5 days, 5.0 PPM): 32609 units/ml
- Algal units/ml (Chlamydomonas sp.; 5 days, 10.0 PPM): 13043 units/ml
- concentration of maximum stimulatory effect (Chlamydomonas sp.; 12 days): 0.5 PPM
- Algal units/ml (Chlamydomonas sp.; 12 days, 0.5 PPM): 65217 units/ml
- Algal units/ml (Chlamydomonas sp.; 12 days, 1.0 PPM): 63043 units/ml
- Algal units/ml (Chlamydomonas sp.; 12 days, 5.0 PPM): 52174 units/ml
- Algal units/ml (Chlamydomonas sp.; 12 days, 10.0 PPM): 54348 units/ml
- activation at 5 ppm (Chlamydomonas sp.; Chlamydomonas, 120 h, read-out: increase in number of algal units/ml of the control): 183%
- effect on algal growth (Anabaena flos-aquae [2]; [5]): inhibitory effect
- Algal units/ml (Anabaena flos-aquae [2]; 5 days, 0.5 PPM): 435 units/ml
- Algal units/ml (Anabaena flos-aquae [2]; 5 days, 1.0 PPM): 1087 units/ml
- Algal units/ml (Anabaena flos-aquae [2]; 5 days, 5.0 PPM): 1087 units/ml
- Algal units/ml (Anabaena flos-aquae [2]; 5 days, 10.0 PPM): 652 units/ml
- Algal units/ml (Anabaena flos-aquae [2]; 12 days, 0.5 PPM): 10217 units/ml
- Algal units/ml (Anabaena flos-aquae [2]; 12 days, 1.0 PPM): 6522 units/ml
- Algal units/ml (Anabaena flos-aquae [2]; 12 days, 5.0 PPM): 4783 units/ml
- reduction in number of algal units/ml vs control (Anabaena flos-aquae [2]; 12 days, 10 PPM): 38,261 algal units/ml
- Algal units/ml (Anabaena flos-aquae [2]; 12 days, 10.0 PPM): 3043 units/ml
- inhibition of growth at 10 ppm (Anabaena flos-aquae [2]; Dolichospermum flos-aquae, 288 h, 12 days, 10 PPM, read-out: reduction in number of algal units/ml, % of the control): 92.6%
- inhibition (visual) (Chlorella vulgaris [3]): no inhibition was noticed
- inhibition (visual) (Anabaena flos-aquae [4]; 1 PPM): slightly inhibited
- inhibition (visual) (Anabaena flos-aquae [4]; 10 PPM): greatly inhibited
- inhibition of growth at 5 ppm (Anabaena sp.; 120 h, 5 days, 5.0 PPM, read-out: reduction of algal units/ml, % of the control): 15.6%
- inhibition of growth at 10 ppm (Anabaena sp.; 120 h, 5 days, 10.0 PPM, read-out: reduction of algal units/ml, % of the control): 30.6%
- Algal units/ml (Anabaena sp.; 5 days, 0.5 PPM): 36522 units/ml
- Algal units/ml (Anabaena sp.; 5 days, 1.0 PPM): 35652 units/ml
- Algal units/ml (Anabaena sp.; 5 days, 5.0 PPM): 26957 units/ml
- Algal units/ml (Anabaena sp.; 5 days, 10.0 PPM): 22174 units/ml
- reduction in algal units/ml vs control (Anabaena sp.; 5 days, 10.0 PPM): 9,783 algal units/ml
- inhibition of growth at 0.5 ppm (Anabaena sp.; 288 h, 12 days, 0.5 PPM (so in the source), read-out: reduction of algal units/ml, % of the control): 59.7%
- inhibition of growth at 10 ppm (Anabaena sp.; 288 h, 12 days, 10 PPM, read-out: reduction of algal units/ml, % of the control): 65.2%
- Algal units/ml (Anabaena sp.; 12 days, 0.5 PPM): 97391 units/ml
- reduction of algal units/ml vs control (Anabaena sp.; 12 days, 0.5 PPM (so in the source)): 70,434 algal units/ml
- Algal units/ml (Anabaena sp.; 12 days, 1.0 PPM): 81957 units/ml
- Algal units/ml (Anabaena sp.; 12 days, 5.0 PPM): 47609 units/ml
- reduction of algal units/ml vs control (Anabaena sp.; 12 days, 10 PPM): 76,956 algal units/ml
- Algal units/ml (Anabaena sp.; 12 days, 10.0 PPM): 41087 units/ml
- effect on growth (Anabaena sp.; concentrations of 1.0 PPM or less): stimulatory effect
